# According to PMC9332833 (Cancers, 2022):
# Key:
# [1] = tested on: CD34+/CD38- leukemia stem cells from CML patients; test: Annexin V-FITC/PI apoptosis in CD34+/CD38- subpopulation; format: cell-based, human; settings: 2.5 or 5 µM, within 24 h, 3 patients; dose dependent
# Protocol: Pre-cultured cells were treated with BK124.1 or DMSO for 24 h. For purity analysis, cells were stained with anti-human CD34-APC antibody, anti-human CD38-PE (Biolegend, San Diego, CA, USA), and propidium iodide according to the manufacturers’ protocols. For apoptosis analysis, cells were additionally stained with Annexin V-FITC kit (BD, Franklin Lakes, NJ, USA) according to the manufacturer’s protocol. Appropriate isotype controls were included. Stained cells were immediately analyzed on a BD LSRFortessa flow cytometer with FlowJo software (BD, Franklin Lakes, NJ, USA), after exclusion of doublets. Purity was analyzed on live cells only, and apoptosis separately for each population of cells (CD34^+/CD38^+ or CD34^+/CD38^−).
# […] Next, we isolated CD34+ cells (EasySep™ Human CD34 Positive Selection Kit II, StemCell Technologies, Vancouver, Canada), counted them and assessed viability with Muse Cell Analyzer (Merck Millipore, Burlington, MA, USA). […] The purity of the live CD34+ fraction was assessed by flow cytometry with anti-human CD34-APC antibody, compared with an appropriate isotype control (Biolegend, San Diego, CA, USA), and propidium iodide (Sigma-Aldrich, St. Louis, MO, USA). […]
# […] In both cases stained cells were immediately analyzed on a BD LSRFortessa flow cytometer and analyzed with FlowJo software (BD, Franklin Lakes, NJ, USA). […]
# [2] = tested on: K562-MDR1 cells; test: Annexin V-FITC/PI apoptosis measurement, K562-MDR1; format: cell-based, human; settings: 5 µM, 24 h
# Protocol: Cells were seeded in 6-well plates (K562 or K562-MDR1) or in 24-well plates (CD34^+ cells). After 24 h, BK124.1 or DMSO was added. After a further 24 h, cells were stained using the Annexin V-FITC kit for the detection of apoptosis (BD, Franklin Lakes, NJ, USA) and immediately analyzed on a BD FACSCalibur using CellQuest software (BD, Franklin Lakes, NJ, USA). […]
# incubated overnight at 37 °C and analyzed using an iMark Microp late absorbance reader (Bio-Rad, Hercules, CA, USA). Results were calculated relative to control cells treated with DMSO only.
# […] CD34+ cells were plated at a concentration of 2.5 × 10^5 cells/mL in a 24-well plate. […] A f t e r a further 24 hours, cells were harvested and stained according to the manufacturer's protocol using the Annexin V-FITC kit for the detection of apoptosis (BD, Franklin Lakes, NJ, USA). Stained cells were immediately analyzed on a BD FACSCalibur using CellQuest softwa re (BD, Franklin Lakes, NJ, USA).
# Cells were seeded at a concentration of 1-2 × 10^5 cells/mL in a 6-well plate. After 24 hours of pre-incubation, BK124.1 in DMSO was added to the cells (vDMSO/vmedium), and incubated for 24 or 48 hours.
# After incubation, cells were washed twice with ice-cold PBS (Mg2+ and Ca2+-free), resuspended in ice-cold 70% ethanol, and placed at -20 °C for 24 hours. […]
# Flow cytometry analysis of CD243 (P-glycoprotein) […]
compound,measurement,setting,value
"CCC12C(=O)C(CC)(C(c3ccccc3)=C1c1ccccc1)C1C(=O)N(CC(O)CNC(C)C)C(=O)C12 (centres unmarked) [BK124.1, 4-[2-hydroxy-3-(propan-2-ylamino)propyl]-1,7-diethyl-8,9-diphenyl-4-azatricyclo [5.2.1.02,6]dec-8-ene-3,5,10-trione]",Apoptosis in CD34+/CD38- leukemia stem cells,[1],induced apoptosis
same,Apoptosis,[2],30.1%
